For one molecule, triglyceride secretion results are on record in patent publication US20230416679A1, “METHODS AND COMPOSITIONS FOR IN-VITRO AUGMENTATION OF MILK PRODUCTION FROM MAMMARY EPITHELIAL CELLS” (Wilk Technologies International Ltd., priority 2021, published 2023).

This assay deals with primary culture of bovine mammary epithelial cells. As to the kind of experiment: Triglyceride / fat secreted to the medium by mammary epithelial cells (Nile red staining, HPLC-ELSD). The assay is classed as cell-based. From the text: For all the experiments, primary culture of bovine mammary epithelial cells were used. The cells were isolated from 3 lactating Holstein cows according to an established protocol (Cohen et al., 2015 supra). Study protocols were in compliance with the regulations of the Israeli Ministry of Health, under the supervision of the Department for Control of Animal Products, State of Israel Ministry of Agriculture Rural Development Veterinary Services and Animal Health. Certificate Nu: #80. After isolation, 60,000 cells were plated in a 35-mm plastic dish on glass cover slips for all florescence staining experiments. For production analysis, 150,000 cells were plated in a 60-mm plastic dish for lipids, protein, and lactose extraction. […] After 24 h of incubation, medium was collected for triglyceride and phospholipid quantification, and cells were harvested for cell counting, lipid, lactose or protein extraction. […]
After treatment, total lipids were extracted from harvested cells and from collected medium. […] Quantification was performed against external standard curves and expressed as μg/per 10^6 live cells or as weight % out of the sum of phospholipids (μg) in the sample. Live cell number was determined with a hemocytometer after 5 min of trypan blue staining. […]

With `O=c1c(O)c(-c2cc(O)c(O)c(O)c2)oc2cc(O)cc(O)c12` [myricetin, Myricetin], the triglyceride secretion entry is given as “can increase”.
